Reference: patent US11135234B2, “Effective aminoglycoside antibiotic for multidrug-resistant bacteria” (MICROBIAL CHEMISTRY RESEARCH FOUNDATION, priority 2015, dated 2021)
Converted amounts (≈) assume the structure as drawn.

Tests used:
P. aeruginosa PAO1 = test: MIC, agar plate dilution method, P. aeruginosa PAO1; type: cell-based, Pseudomonas aeruginosa; conditions: for MIC: Pseudomonas aeruginosa, PAO1, P. aeruginosa PAO1, Sensitive bacterium, read-out: minimal inhibitory concentration (MIC); for minimal inhibitory concentration (MIC): P. aeruginosa PAO1, Sensitive bacterium
Protocol: (§1) As for the representative compounds of a new aminoglycoside antibiotic of the present invention described in Examples, the minimal inhibitory concentration (MIC, μg/mL) was measured for various assay strains of bacteria using an agar plate dilution method in accordance with the method described in the Japan Society of Chemotherapy.

P. aeruginosa MSC17707 = test: MIC, agar plate dilution method, P. aeruginosa MSC17707; type: cell-based, Pseudomonas aeruginosa; conditions: for MIC: Pseudomonas aeruginosa, MSC17707, P. aeruginosa MSC17707, AMK-resistant, read-out: minimal inhibitory concentration (MIC); for minimal inhibitory concentration (MIC): P. aeruginosa MSC17707, AMK-resistant
Protocol: as §1

S. aureus RN4220/pMS520 = test: MIC, agar plate dilution method, S. aureus RN4220/pMS520; type: cell-based, Staphylococcus aureus; conditions: for MIC: Staphylococcus aureus, MRSA, read-out: minimal inhibitory concentration (MIC), S. aureus RN4220/pMS520, MRSA; for minimal inhibitory concentration (MIC): S. aureus RN4220/pMS520, MRSA
Protocol: as §1

E. faecium ATCC19434 = test: MIC, agar plate dilution method, E. faecium ATCC19434; type: cell-based, Enterococcus faecium; conditions: for MIC: Enterococcus faecium, ATCC19434, E. faecium ATCC19434, read-out: minimal inhibitory concentration (MIC); for minimal inhibitory concentration (MIC): E. faecium ATCC19434
Protocol: as §1

P. aeruginosa MSC01035 = test: MIC, agar plate dilution method, P. aeruginosa MSC01035; type: cell-based, Pseudomonas aeruginosa; conditions: P. aeruginosa MSC01035, ABK-resistant; for MIC: Pseudomonas aeruginosa, read-out: minimal inhibitory concentration (MIC)
Protocol: as §1

[1] = test system: K. pneumoniae ATCC BAA-1705; test: MIC, agar plate dilution method, K. pneumoniae ATCC BAA-1705; type: cell-based, Klebsiella pneumoniae; conditions: for MIC: Klebsiella pneumoniae, ATCCBAA1705, K. pneumoniae ATCC BAA-1705, KPC-producing strain, read-out: minimal inhibitory concentration (MIC); for minimal inhibitory concentration (MIC): K. pneumoniae ATCC BAA-1705, KPC-producing strain
Protocol: as §1

[2] = test system: K. pneumoniae ATCC BAA-2146; test: MIC, agar plate dilution method, K. pneumoniae ATCC BAA-2146; type: cell-based, Klebsiella pneumoniae; conditions: for MIC: Klebsiella pneumoniae, ATCCBAA2146, K. pneumoniae ATCC BAA-2146, NDM-producing strain, read-out: minimal inhibitory concentration (MIC); for minimal inhibitory concentration (MIC): K. pneumoniae ATCC BAA-2146, NDM-producing strain
Protocol: as §1

P. aeruginosa PAO1/GN315 = test: MIC, agar plate dilution method, P. aeruginosa PAO1/GN315; type: cell-based, Pseudomonas aeruginosa; conditions: for MIC: Pseudomonas aeruginosa, read-out: minimal inhibitory concentration (MIC), P. aeruginosa PAO1/GN315, AMK-resistant; for minimal inhibitory concentration (MIC): P. aeruginosa PAO1/GN315, AMK-resistant
Protocol: as §1

S. aureus MF490 = test: MIC, agar plate dilution method, S. aureus MF490; type: cell-based, Staphylococcus aureus; conditions: for MIC: Staphylococcus aureus, MRSA, read-out: minimal inhibitory concentration (MIC); for minimal inhibitory concentration (MIC): S. aureus MF490, MRSA
Protocol: as §1

S. marcescens TH-0447 = test: MIC, agar plate dilution method, S. marcescens TH-0447; type: cell-based, Serratia marcescens; conditions: for MIC: Serratia marcescens, TH0447, S. marcescens TH-0447, AMK-resistant, read-out: minimal inhibitory concentration (MIC); for minimal inhibitory concentration (MIC): S. marcescens TH-0447, AMK-resistant
Protocol: as §1

[3] = test system: A. baumannii ATCC BAA-1710; test: MIC, agar plate dilution method, A. baumannii ATCC BAA-1710; type: cell-based, Acinetobacter baumannii; conditions: for MIC: Acinetobacter baumannii, ATCCBAA1710, A. baumannii ATCC BAA-1710, MDRA, read-out: minimal inhibitory concentration (MIC); for minimal inhibitory concentration (MIC): A. baumannii ATCC BAA-1710, MDRA
Protocol: as §1

S. marcescens GN6944 = test: MIC, agar plate dilution method, S. marcescens GN6944; type: cell-based, Serratia marcescens; conditions: S. marcescens GN6944, GM-resistant; for MIC: Serratia marcescens, read-out: minimal inhibitory concentration (MIC)
Protocol: as §1

E. coli JM109/pMW218 = test: MIC, agar plate dilution method, E. coli JM109/pMW218; type: cell-based, Escherichia coli; conditions: for MIC: Escherichia coli, JM109/PMW218, E. coli JM109/pMW218, Sensitive bacterium, read-out: minimal inhibitory concentration (MIC); for minimal inhibitory concentration (MIC): E. coli JM109/pMW218, Sensitive bacterium
Protocol: as §1

S. aureus RN4220 = test: MIC, agar plate dilution method, S. aureus RN4220; type: cell-based, Staphylococcus aureus; conditions: for MIC: Staphylococcus aureus, RN4220, S. aureus RN4220, Sensitive bacterium, read-out: minimal inhibitory concentration (MIC); for minimal inhibitory concentration (MIC): S. aureus RN4220, Sensitive bacterium
Protocol: as §1

Row | Structure (SMILES) | minimal inhibitory concentration (MIC) (P. aeruginosa PAO1) [µg/mL] | minimal inhibitory concentration (MIC) (P. aeruginosa MSC17707) [µg/mL] | minimal inhibitory concentration (MIC) (S. aureus RN4220/pMS520) [µg/mL] | minimal inhibitory concentration (MIC) (E. faecium ATCC19434) [µg/mL] | minimal inhibitory concentration (MIC) (P. aeruginosa MSC01035) [µg/mL] | minimal inhibitory concentration (MIC) [1] [µg/mL] | minimal inhibitory concentration (MIC) [2] [µg/mL] | minimal inhibitory concentration (MIC) (P. aeruginosa PAO1/GN315) [µg/mL] | minimal inhibitory concentration (MIC) (S. aureus MF490) [µg/mL] | minimal inhibitory concentration (MIC) (S. marcescens TH-0447) [µg/mL] | minimal inhibitory concentration (MIC) [3] [µg/mL] | minimal inhibitory concentration (MIC) (S. marcescens GN6944) [µg/mL] | minimal inhibitory concentration (MIC) (E. coli JM109/pMW218) [µg/mL] | minimal inhibitory concentration (MIC) (S. aureus RN4220) [µg/mL] | further results
1 | CNC1C(O[C@H]2OC(CO)[C@@H](NC3CN(C)C3)[C@H](O)C2O)O[C@H]2CC(N)[C@@H](O[C@@H]3C(N)C[C@@H](N)C(O)[C@H]3O)OC2C1O (some centres unmarked) [Compound A4-i, 4″-N-(1-methylazetidin-3-yl)apramycin] |  |  |  |  |  |  |  |  |  |  |  |  |  |  | MIC (P. aeruginosa PAO1): 8 µg/mL (≈ 13.1 µM); MIC (P. aeruginosa MSC17707): 16 µg/mL (≈ 26.3 µM); MIC (S. aureus RN4220/pMS520): 4 µg/mL (≈ 6.57 µM); MIC (E. faecium ATCC19434): 32 µg/mL (≈ 52.6 µM); MIC (P. aeruginosa MSC01035): 16 µg/mL (≈ 26.3 µM); MIC [1]: 2 µg/mL (≈ 3.29 µM); MIC [2]: 2 µg/mL (≈ 3.29 µM); MIC (P. aeruginosa PAO1/GN315): 16 µg/mL (≈ 26.3 µM); MIC (S. aureus MF490): 16 µg/mL (≈ 26.3 µM); MIC (S. marcescens TH-0447): 16 µg/mL (≈ 26.3 µM); MIC [3]: 16 µg/mL (≈ 26.3 µM); MIC (S. marcescens GN6944): 8 µg/mL (≈ 13.1 µM); MIC (E. coli JM109/pMW218): 1 µg/mL (≈ 1.64 µM); MIC (S. aureus RN4220): 4 µg/mL (≈ 6.57 µM)
2 | CNC1C(O[C@H]2OC(CO)[C@@H](NC(=N)N)[C@H](O)C2O)O[C@H]2CC(N)[C@@H](O[C@@H]3C(N)C[C@@H](N)C(O)[C@H]3O)OC2C1O (some centres unmarked) [Compound A4-j, 4″-deamino-4″-guanidinoapramycin] |  |  |  |  |  |  |  |  |  |  |  |  |  |  | MIC (P. aeruginosa PAO1): 4 µg/mL (≈ 6.88 µM); MIC (P. aeruginosa MSC17707): 8 µg/mL (≈ 13.8 µM); MIC (S. aureus RN4220/pMS520): 2 µg/mL (≈ 3.44 µM); MIC (E. faecium ATCC19434): 16 µg/mL (≈ 27.5 µM); MIC (P. aeruginosa MSC01035): 8 µg/mL (≈ 13.8 µM); MIC [1]: 2 µg/mL (≈ 3.44 µM); MIC [2]: 1 µg/mL (≈ 1.72 µM); MIC (P. aeruginosa PAO1/GN315): 8 µg/mL (≈ 13.8 µM); MIC (S. aureus MF490): 8 µg/mL (≈ 13.8 µM); MIC (S. marcescens TH-0447): 8 µg/mL (≈ 13.8 µM); MIC [3]: 8 µg/mL (≈ 13.8 µM); MIC (S. marcescens GN6944): 4 µg/mL (≈ 6.88 µM); MIC (E. coli JM109/pMW218): 1 µg/mL (≈ 1.72 µM); MIC (S. aureus RN4220): 2 µg/mL (≈ 3.44 µM)
3 | CNC1C(OC2OC(CO)C(NCCNC(=N)N)C(O)C2O)OC2CC(N)C(OC3C(N)CC(N)C(O)C3O)OC2C1O (centres unmarked) [Compound A4-k, 4″-N-guanidinoethylapramycin] | 8 (≈ 12.8 µM) | 16 (≈ 25.6 µM) | 2 (≈ 3.2 µM) | 16 (≈ 25.6 µM) | 16 (≈ 25.6 µM) | 1 (≈ 1.6 µM) | 1 (≈ 1.6 µM) | 8 (≈ 12.8 µM) | 16 (≈ 25.6 µM) | 8 (≈ 12.8 µM) | 8 (≈ 12.8 µM) | 4 (≈ 6.4 µM) | 0.5 (≈ 0.8 µM) | 2 (≈ 3.2 µM) | 
4 | CNC1C(OC2OC(CO)C(N)C(O)C2O)OC2CC(N)C(OC3C(N)CC(N)C(O)C3O)OC2C1O (centres unmarked) [Compound B5, 5-epiapramycin] | 4 (≈ 7.41 µM) | 4 (≈ 7.41 µM) | 2 (≈ 3.71 µM) | 16 (≈ 29.7 µM) | 4 (≈ 7.41 µM) | 1 (≈ 1.85 µM) | 1 (≈ 1.85 µM) | 4 (≈ 7.41 µM) | 8 (≈ 14.8 µM) | 8 (≈ 14.8 µM) | 8 (≈ 14.8 µM) | 8 (≈ 14.8 µM) | 1 (≈ 1.85 µM) | 4 (≈ 7.41 µM) | 
5 | CNC1C(OC2OC(CO)C(N)C(O)C2O)OC2CC(N)C(OC3C(N)CC(N)C(O)C3F)OC2C1O (stereo not drawn) [Compound B7, 5-deoxy-5-epi-5-fluoroapramycin] | 4 (≈ 7.39 µM) | 8 (≈ 14.8 µM) | 4 (≈ 7.39 µM) | 32 (≈ 59.1 µM) | 8 (≈ 14.8 µM) | 2 (≈ 3.69 µM) | 2 (≈ 3.69 µM) | 8 (≈ 14.8 µM) | 16 (≈ 29.5 µM) | 16 (≈ 29.5 µM) | 8 (≈ 14.8 µM) | 8 (≈ 14.8 µM) | 1 (≈ 1.85 µM) | 4 (≈ 7.39 µM) | 
6 | CN[C@@H]1[C@@H](O[C@H]2O[C@H](CO)[C@@H](N)[C@H](O)[C@H]2O)O[C@H]2C[C@@H](N)[C@@H](O[C@@H]3[C@@H](N)C[C@@H](N)C[C@@H]3O)O[C@@H]2[C@@H]1O [Compound C6, 6-deoxy-5-epiapramycin] | 4 (≈ 7.64 µM) | 8 (≈ 15.3 µM) | 4 (≈ 7.64 µM) | 16 (≈ 30.6 µM) | 8 (≈ 15.3 µM) | 2 (≈ 3.82 µM) | 1 (≈ 1.91 µM) | 4 (≈ 7.64 µM) | 8 (≈ 15.3 µM) | 8 (≈ 15.3 µM) | 8 (≈ 15.3 µM) | 4 (≈ 7.64 µM) | 1 (≈ 1.91 µM) | 4 (≈ 7.64 µM) | 
7 | CNC1C(OC2OC(CO)C(N)C(O)C2O)OC2CC(N)C(OC3C(N)CC(N)CC3F)OC2C1O (centres unmarked) [Compound C8, 5,6-dideoxy-5-fluoroapramycin] | 4 (≈ 7.61 µM) | 4 (≈ 7.61 µM) | 2 (≈ 3.81 µM) | 16 (≈ 30.4 µM) | 8 (≈ 15.2 µM) | 1 (≈ 1.9 µM) | 1 (≈ 1.9 µM) | 4 (≈ 7.61 µM) | 8 (≈ 15.2 µM) | 8 (≈ 15.2 µM) | 8 (≈ 15.2 µM) | 4 (≈ 7.61 µM) | 1 (≈ 1.9 µM) | 2 (≈ 3.81 µM) | 
